{"source": "patent US20260008784A1", "about": "(VASTHERA CO., LTD., priority 2022, published 2026)", "key": {"[1]": {"test_system": "PDGF-induced tyrosine phosphorylation and PLC-γ1 phosphorylation in PASMC", "assay": "Immunoblot of PDGF-mediated signaling in PrxII knock-down PASMC", "assay_type": "cell-based, human", "conditions": "PASMCs, PDGF stimulation, FIG. 3", "protocol": "(§1) Cells were quickly washed in ice-cold phosphate-buffered saline (PBS) and lysed in extraction buffer containing 20 mM Hepes (pH 7.0), 1% Triton X-100, 150 mM NaCl, 10% glycerol, 1 mM EDTA, 2 mM EGTA, and 1 mM DTT, 5 mM Na3VO4, 5 mM NaF, 1 mM AEBSF, aprotinin (5 μg/mL), and leupeptin (5 μg/mL). After cen-trifugation at 12,000×g, the clarified cell extracts were used for immunoblotting. For re-blotting, the immunoblots were retrieved in a solution of 67 mM Tris (pH 6.7), 2% SDS, and 100 mM 2-mercaptoethanol at 60° C. for 30 min to remove antibodies and rinsed three times with a Tris-buffered saline (TBS) solution containing 1% Triton X-100. The retrieved membranes were subjected to new immunoblotting.\nIn human aortic smooth muscle cell (HASMC) and human pulmonary artery smooth muscle cell (PASMC) in which PrxII was knocked out by transfecting the PrxII siRNA, the ability of test compounds to replace the cellular function of PrxII was evaluated. That is, the efficacy of the new compounds was verified in terms of signaling pathways induced by PDGF that regulates the growth and migration of vascular smooth muscle cells in the aorta and pulmonary artery. Activation of PDGF-induced signaling pathway was analyzed by an immunoblot method using an antibody that specifically recognizes phosphorylation of Tyr 857, which is a major phosphorylation site on PDGF receptor (PDGFRβ)."}, "[2]": {"test_system": "VEGF-induced tyrosine phosphorylation and ERK2 phosphorylation in PAEC", "assay": "Immunoblot of VEGF-mediated signaling in PrxII knock-down PAEC", "assay_type": "cell-based, human", "conditions": "PAECs, VEGF stimulation, FIG. 6", "protocol": "as §1\nIn human aortic endothelial cell (HAEC) and human pulmonary artery endothelial cell (PAEC) in which PrxII was knocked out by transfecting the PrxII siRNA, the ability of test compounds to replace the cellular function of PrxII was evaluated. That is, the efficacy of the new compounds was verified in terms of signaling pathways induced by VEGF that regulates the growth and migration of vascular endothelial cells in the aorta and pulmonary artery. Activation of VEGF-induced signaling pathway was analyzed by an immunoblot method using an antibody that specifically recognizes phosphorylation of Tyr 1175, which is a major phosphorylation site on VEGF receptor-2 (VEGFR2)."}, "[3]": {"test_system": "SuHx rat model of pulmonary arterial hypertension", "assay": "Sugen/hypoxia (SuHx) rat model of pulmonary arterial hypertension", "assay_type": "in vivo", "conditions": "P.O., once daily, 0.1 mg/kg, 5 weeks; for RV hypertrophy (Fulton's index) / Right ventricular systolic pressure (RVSP): compared to vehicle control group, FIG. 7", "protocol": "The rat study protocol was approved by the Institutional Animal Care and Use Committee of the Ewha Womans University, Republic of Korea, and conforms to the ARRIVE guidelines. Six-week-old rats were acclimatized for one week in the laboratory. Then, Sugen 5416 (Sigma Aldrich) was subcutaneously injected at a dose of 20 mg/kg. The administered subjects were maintained in a normobaric hypoxic (10% O2) chamber (A chamber, Biosphenix) for 3 weeks. Rats were transferred to normoxia and orally administered with either control vehicle or test compounds for additional 5 weeks (P.O., once daily, 0.1 mg per kg weight).\nRight ventricular systolic pressure (RVSP) was measured by […] using a curved catheter equipped with PowerLab2/26 device (AD Instruments, UK). Rats were anesthetized with 2% isoflurane inhalation. A catheter was inserted through the right jugular vein, the pressure was measured for 10 seconds with stabilized pattern. After […], rats were perfused with saline, and the heart was carefully removed. The removed heart was dissected into the right ventricle (RV), the rest of the septum (S; septum), and the left ventricle (LV). Each piece of heart was weighed using a microbalance. The RV/(LV+S) value was calculated and represented as a right ventricular hypertrophy index (Fulton's index).\nRats were anesthetized with 2% isoflurane inhalation and subjected to transcardiac perfusion-fixation with heparinized saline solution containing […]. Then, left lung lobes were incised and fixed in 10% NBF for 3 days. The fixed tissues were paraffin-embedded and sectioned using a rotary microtome (Leica HistoCore MULTICUT). Two serial tissue sections (4 μm thick) were placed a slide glass and stained with hematoxylin and eosin (HE). For analysis, ˜100 pulmonary arteries (diameter 20-100 μm) per tissue section were chosen for measurement. The luminal, internal elastic laminal, and external elastic laminal areas were quantified using NIH ImageJ v1.62. The intimal and medial areas were determined by subtraction of the luminal area from the internal elastic area and by subtracting the internal elastic area from the external elastic area. The values were averaged and used for calculating pulmonary arterial vessel thickness.\nParaffin sections were blocked with 5% normal donkey serum (Vector Laboratories) in PBST (PBS solution of 0.3% Triton X-100) for 1 h at room temperature. Thereafter, lung tissue sections were incubated with […] for Alexa Fluor 568-conjugated smooth muscle actin (α-SMA; 1:300 dilution) and Alexa Fluor 488-conjugated von Willebrand Factor (vWF; 1:200 dilution) at 4° C. for 12 h. Subsequently, nuclei were counterstained with DAPI. Fluorescence images were recorded in random regions of at least 10 pulmonary artery vessels (diameter 20-100 um) per tissue section at a screen magnification of 60× using an LSM 880 confocal microscope equipped with argon and helium-neon lasers.\nThe therapeutic effect of new compounds on pulmonary arterial hypertension was evaluated in a preclinical SuHx rat model. For establishing PAH model, rats were administered with Sugen (VEGFR2 inhibitor) and placed in a normobaric hypoxic condition (10% O2) for 3 weeks. Rats were moved to normoxic condition and orally administered with control vehicle or compound 1 or 8 (P.O., once daily, 0.1 mg/kg) for 5 weeks. Thereafter, right ventricular systolic pressure (RVSP) and right ventricular hypertrophy (Fulton's index) were measured at the end of treatment."}, "in vitro [4]": {"assay": "in vitro", "conditions": "human", "procedure": "(§2) For cytotoxicity analysis, human aortic endothelial cells (HAEC) and smooth muscle cells (HASMC) were seeded in a 96-well culture plate at density of 4000 cells/well in a final volume of 100 μL. Cells were cultured for 24 h and serum-starved for an additional 18 h. Test compounds were serially diluted with EBM-2 culture medium, added to the plate at 100 μL/well, and further incubated for 24 h. The number of viable cells was measured using the WST-1 cell viability assay kit (Roche Diagnostics, USA). Cell number was expressed as absorbance values at 450 nm after subtracting the turbidity value at 600 nm. The absorbance values from three replicate wells were averaged.\n(§3) After treatment with ascending concentrations of each compound, the concentration of test compound corresponding to 50% cell viability (CC50) was measured."}, "in vitro [5]": {"assay": "in vitro", "conditions": "human", "remark": "listed apart in the source", "procedure": "as §2, §3"}}}
{"compound": "O=C1C2CSSC3(COCCN13)C(=O)N2Cc1ccccc1", "note": "(centres unmarked) [Compound 8, 12-benzyltetrahydro-5H,10H-4,10a-(epiminomethano)[1,4]oxazino[3,4-c][1,2,4]dithia zepine-5,11-dione]", "values": [{"measurement": "Effect on total tyrosine phosphorylation and phosphorylation of signaling proteins downstream of PDGFRβ", "setting": "[1]", "value": "significantly inhibits the protein phosphorylation"}, {"measurement": "Effect on total tyrosine phosphorylation and phosphorylation of signaling proteins downstream of VEGFR2", "setting": "[2]", "value": "significantly inhibits the protein phosphorylation"}, {"measurement": "RV hypertrophy (Fulton's index)", "setting": "[3]", "value": "significantly reduces"}, {"measurement": "Right ventricular systolic pressure (RVSP)", "setting": "[3]", "value": "significantly reduces"}]}
{"compound": "CN1C(=O)C2(C)SSCC1C(=O)N2C", "note": "(centres unmarked) [Compound 1, 1,6,8-trimethyl-2,3-dithia-6,8-diazabicyclo[3.2.2]nonane-7,9-dione]", "values": [{"measurement": "Pulmonary arterial vessel occlusion (histology)", "setting": "[3]; FIG. 8", "value": "widens the pulmonary arterial vessels"}, {"measurement": "RV hypertrophy (Fulton's index)", "setting": "[3]", "value": "significantly reduces"}, {"measurement": "Right ventricular systolic pressure (RVSP)", "setting": "[3]", "value": "significantly reduces"}, {"measurement": "Endothelial layer (vWF-labeled ECs) in pulmonary arterial vessels", "setting": "[3]; immunostaining, FIG. 9", "value": "induces the recovery of endothelial layer"}, {"measurement": "Medial thickness (SMA-labeled SMCs) in pulmonary arterial vessels", "setting": "[3]; immunostaining, FIG. 9", "value": "reduction of medial thickness"}, {"measurement": "CC50", "setting": "in vitro [4]", "value": "> 500", "unit": "µM"}, {"measurement": "CC50", "setting": "in vitro [5]", "value": "> 500", "unit": "µM"}]}
